Data published in US10519154B2, “7-substituted 1-pyridyl-naphthyridine-3-carboxylic acid amides and use thereof” (Bayer Pharma Aktiengesellschaft, priority 2016, dated 2019).

Molecular target: T1, human M2 receptor (Homo sapiens, UniProt P08172)
T1 sequence (P08172 1-466): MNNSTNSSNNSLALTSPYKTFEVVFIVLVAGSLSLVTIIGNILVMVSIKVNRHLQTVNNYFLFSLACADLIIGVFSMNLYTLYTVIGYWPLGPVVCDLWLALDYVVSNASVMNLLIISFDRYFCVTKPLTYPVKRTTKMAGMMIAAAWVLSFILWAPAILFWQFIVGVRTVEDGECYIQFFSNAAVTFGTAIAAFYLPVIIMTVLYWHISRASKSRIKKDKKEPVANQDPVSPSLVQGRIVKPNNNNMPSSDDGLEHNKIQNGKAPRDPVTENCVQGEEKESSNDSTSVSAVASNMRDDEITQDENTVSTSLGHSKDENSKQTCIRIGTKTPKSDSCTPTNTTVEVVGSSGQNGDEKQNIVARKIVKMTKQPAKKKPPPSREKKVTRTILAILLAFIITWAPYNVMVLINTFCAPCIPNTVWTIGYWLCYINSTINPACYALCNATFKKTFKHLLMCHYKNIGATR
Test: Functional M2-GIRK1/4 activation test: allosteric potency (EC50) and efficiency
Settings: for EC50: Receptor activity EC50, CHO-DUKX-M2-GIRK cells, acetylcholine at EC20, in some cases mean of two or more determinations; for Emax: read-out: Efficiency, boosting of the acetylcholine effect at EC20 acetylcholine concentration, CHO-DUKX-M2-GIRK cells

## CC(C)C[C@@H](NC(=O)c1cn(-c2ncc(F)cc2F)c2nc(N3CCNC3=O)ccc2c1=O)C(F)(F)F [Example 156, 1-(3,5-Difluoropyridin-2-yl)-4-oxo-7-(2-oxoimidazolidin-1-yl)-N-[-(2R)-1,1,1-trifluoro-4-methylpentan-2-yl]-1,4-dihydro-1,8-naphthyridine-3-carboxamide]
  EC50: 36 nM
  Emax: 100%

## CC(C)C[C@H](NC(=O)c1cn(-c2ncc(F)cc2F)c2nc(N3CCNC3=O)ccc2c1=O)C(F)(F)F [Example 157, 1-(3,5-Difluoropyridin-2-yl)-4-oxo-7-(2-oxoimidazolidin-1-yl)-N-[(2S)-1,1,1-trifluoro-4-methylpentan-2-yl]-1,4-dihydro-1,8-naphthyridine-3-carboxamide]
  EC50: 50 nM
  Emax: 100%

## O=C(NC(C(F)(F)F)C(F)(F)F)c1cn(-c2ncc(F)cc2F)c2nc(N3CCNC3=O)ccc2c1=O [Example 158, 1-(3,5-Difluoropyridin-2-yl)-N-(1,1,1,3,3,3-hexafluoropropan-2-yl)-4-oxo-7-(2-oxoimidazolidin-1-yl)-1,4-dihydro-1,8-naphthyridine-3-carboxamide]
  EC50: 115 nM
  Emax: 90.5%

## O=C(NC(CC(F)(F)F)C(F)(F)F)c1cn(-c2ncc(F)cc2F)c2nc(N3C[C@@H](O)CC3=O)ccc2c1=O (stereo partly drawn) [Example 159, 1-(3,5-Difluoropyridin-2-yl)-N-[1,1,1,4,4,4-hexafluorobutan-2-yl]-7-[(4S)-4-hydroxy-2-oxopyrrolidin-1-yl]-4-oxo-1,4-dihydro-1,8-naphthyridine-3-carboxamide]
  EC50: 94 nM
  Emax: 100%

## O=C(NC(CC(F)(F)F)C(F)(F)F)c1cn(-c2ncc(F)cc2F)c2nc(N3C[C@@H](O)[C@H](O)C3)ccc2c1=O (stereo partly drawn) [Example 160, 1-(3,5-Difluoropyridin-2-yl)-7-[(3R,4R)-3,4-dihydroxypyrrolidin-1-yl]-N-[1,1,1,4,4,4-hexafluorobutan-2-yl]-4-oxo-1,4-dihydro-1,8-naphthyridine-3-carboxamide]
  EC50: 155 nM
  Emax: 90.5%

## O=C(N[C@@H](C1CC1)C(F)(F)F)c1cn(-c2ncc(F)cc2F)c2nc(N3CCN(CCO)C3=O)ccc2c1=O [Example 167, N-[(1S)-1-Cyclopropyl-2,2,2-trifluoroethyl]-1-(3,5-difluoropyridin-2-yl)-7-[3-(2-hydroxyethyl)-2-oxoimidazolidin-1-yl]-4-oxo-1,4-dihydro-1,8-naphthyridine-3-carboxamide]
  EC50: 420 nM
  Emax: 92%

## O=C(NC1CCC1)c1cn(-c2ncc(F)cc2F)c2nc(N3C[C@@H](O)[C@H](O)C3)ccc2c1=O [Example 168, N-Cyclobutyl-1-(3,5-difluoropyridin-2-yl)-7-[(3R,4R)-3,4-dihydroxypyrrolidin-1-yl]-4-oxo-1,4-dihydro-1,8-naphthyridine-3-carboxamide]
  EC50: 2850 nM
  Emax: 84.5%

## CC1(NC(=O)c2cn(-c3ncc(F)cc3F)c3nc(N4C[C@@H](O)[C@H](O)C4)ccc3c2=O)CC(F)(F)C1 [Example 170, N-(3,3-Difluoro-1-methylcyclobutyl)-1-(3,5-difluoropyridin-2-yl)-7-[(3R,4R)-3,4-dihydroxypyrrolidin-1-yl]-4-oxo-1,4-dihydro-1,8-naphthyridine-3-carboxamide]
  EC50: 2250 nM
  Emax: 86%

## CC1(NC(=O)c2cn(-c3ncc(F)cc3F)c3nc(N4CCNC4=O)ccc3c2=O)CC(F)(F)C1 [Example 171, N-(3,3-Difluoro-1-methylcyclobutyl)-1-(3,5-difluoropyridin-2-yl)-4-oxo-7-(2-oxoimidazolidin-1-yl)-1,4-dihydro-1,8-naphthyridine-3-carboxamide]
  EC50: 3100 nM
  Emax: 90.5%

## CC1(NC(=O)c2cn(-c3ncc(F)cc3F)c3nc(N4C[C@@H](O)CC4=O)ccc3c2=O)CC(F)(F)C1 [Example 172, N-(3,3-Difluoro-1-methylcyclobutyl)-1-(3,5-difluoropyridin-2-yl)-7-[(4S)-4-hydroxy-2-oxopyrrolidin-1-yl]-4-oxo-1,4-dihydro-1,8-naphthyridine-3-carboxamide]
  EC50: 1600 nM
  Emax: 98%
